This is an account of results in patent publication US20140227419A1, “ANTI-FUNGAL AGENT FOR PROCESSED CEREAL FOODS” (NAGASE & co., LTD., priority 2011, published 2014).

In this assay the test system is mold. Description: Anti-fungal effect by spraying method (2): loaves with calcium propionate kneaded into the dough sprayed, mold growth checked visually. Conditions: 0.3% calcium propionate kneaded into bread dough; sprayed with nothing. Here is the method: Three hundred and thirty grams of bread dough (dough) of the raw materials blended in the ratio shown in Table 1 (Example 1) was mixed at a low speed for 5 minutes, and then, was mixed at a high speed for 7 minutes. The dough was retained at 35° C. for 100 minutes to be leavened, and then, was baked at 140° C. for 20 minutes to obtain a loaf of bread (hereinafter, referred to as a “loaf”).
The obtained loaf was left to room temperature, and the entire surface of the loaf (approximately 280 g) was sprayed with a spraying agent (approximately 10 μL/cm^2) shown in Table 2 (“0.1% chitinase” means a concentration when 1 mg of chitinase is added with respect to 1 ml of the spraying agent). The loaves were retained in the atmosphere to dry the surface, and then, the loaves were independently put into separate plastic bags and were preserved at a room temperature. The presence or the absence of the growth of mold was checked visually. […]
The anti-fungal effects of the spraying agents 1 to 3 were evaluated in the same manner as in Example 1, except that the raw materials were blended in the ratio shown in Table 1 (Example 2) instead of the ratio shown in Table 1 (Example 1). […]

With `CCC(=O)[O-].CCC(=O)[O-].[Ca+2]` [calcium propionate], the “Length of preservation time of bread with calcium propionate kneaded into the dough, without spraying” value was found to be 11 days.
